Read-outs that look alike come from different tables or passages of the source.
Tests used:
Assay in all cases: AK assay 384-well format, Prestwick library screening
[1] = system: S. aureus strain USA300-0114; type: cell-based, Staphylococcus aureus; settings: for AK-based Prestwick Library Screening Results: S. aureus (increase in extracellular AK activity): 384-well
[2] = system: A. baumannii strain 98-37-09; type: cell-based, Acinetobacter baumannii; settings: for AK-based Prestwick Library Screening Results: A. baumannii (increase in extracellular AK activity): 384-well
P. aeruginosa = type: cell-based, Pseudomonas aeruginosa; settings: for AK-based Prestwick Library Screening Results: P. aeruginosa (increase in extracellular AK activity): 384-well
E. coli = type: cell-based, Escherichia coli; settings: for AK-based Prestwick Library Screening Results: E. coli (increase in extracellular AK activity): 384-well
K. pneumoniae = type: cell-based, Klebsiella pneumoniae; settings: for AK-based Prestwick Library Screening Results: K. pneumoniae (increase in extracellular AK activity): 384-well
E. faecium = type: cell-based, Enterococcus faecium; settings: for AK-based Prestwick Library Screening Results: E. faecium (increase in extracellular AK activity): 384-well
E. cloacae = type: cell-based, Enterobacter cloacae; settings: for AK-based Prestwick Library Screening Results: E. cloacae (increase in extracellular AK activity): 384-well
[3] = 50 μM final drug concentration, […]
[4] = 50 μM final drug concentration, 384-well format, cutoff for positive-scoring molecules 3-fold increase
[5] = planktonic S. aureus, 50 μM final drug concentration, […]
[6] = planktonic A. baumannii, 50 μM final drug concentration, […]
[7] = planktonic P. aeruginosa, 50 μM final drug concentration, […]
[8] = planktonic E. coli, 50 μM final drug concentration, […]
[9] = planktonic K. pneumoniae, 50 μM final drug concentration, […]
[10] = planktonic E. faecium, 50 μM final drug concentration, […]
[11] = planktonic E. cloacae, 50 μM final drug concentration, […]
[12] = 50 μM final drug concentration, planktonic, cutoff for positive-scoring molecules 3-fold increase
[13] = 50 μM final drug concentration, 384-well format, […]
[14] = planktonic S. aureus, 50 μM final drug concentration, cutoff for positive-scoring molecules 3-fold increase
[15] = planktonic A. baumannii, 50 μM final drug concentration, cutoff for positive-scoring molecules 3-fold increase
[16] = planktonic P. aeruginosa, 50 μM final drug concentration, cutoff for positive-scoring molecules 3-fold increase
[17] = planktonic K. pneumoniae, 50 μM final drug concentration, cutoff for positive-scoring molecules 3-fold increase
[18] = planktonic E. faecium, 50 μM final drug concentration, cutoff for positive-scoring molecules 3-fold increase
[19] = planktonic E. cloacae, 50 μM final drug concentration, cutoff for positive-scoring molecules 3-fold increase

(−)-MK 801 hydrogen maleate
AK-based Prestwick Library Screening Results, S. aureus (fold increase in extracellular AK activity) [1, 3]: 1.1
AK-based Prestwick Library Screening Results, A. baumannii (fold increase in extracellular AK activity) [2, 3]: 1.1
AK-based Prestwick Library Screening Results, P. aeruginosa (fold increase in extracellular AK activity) (P. aeruginosa; [3]): 1.3
AK-based Prestwick Library Screening Results, E. coli (fold increase in extracellular AK activity) (E. coli; [3]): 1.2
AK-based Prestwick Library Screening Results, K. pneumoniae (fold increase in extracellular AK activity) (K. pneumoniae; [3]): 1.0
AK-based Prestwick Library Screening Results, E. faecium (fold increase in extracellular AK activity) (E. faecium; [3]): 1.0
AK-based Prestwick Library Screening Results, E. cloacae (fold increase in extracellular AK activity) (E. cloacae; [3]): 1.9

Alverine citrate salt
AK-based Prestwick Library Screening Results, S. aureus (increase in extracellular AK activity) [1, 4]: 0.7
AK-based Prestwick Library Screening Results, A. baumannii (increase in extracellular AK activity) [2, 4]: 0.9
AK-based Prestwick Library Screening Results, P. aeruginosa (increase in extracellular AK activity) (P. aeruginosa; [4]): 0.8
AK-based Prestwick Library Screening Results, E. coli (increase in extracellular AK activity) (E. coli; [4]): 0.9
AK-based Prestwick Library Screening Results, K. pneumoniae (increase in extracellular AK activity) (K. pneumoniae; [4]): 0.7
AK-based Prestwick Library Screening Results, E. faecium (increase in extracellular AK activity) (E. faecium; [4]): 0.9
AK-based Prestwick Library Screening Results, E. cloacae (increase in extracellular AK activity) (E. cloacae; [4]): 0.9

Antimycin A
AK-based Prestwick Library Screening Results: S. aureus (increase in extracellular AK activity) [1, 5]: 1.0
AK-based Prestwick Library Screening Results: A. baumannii (increase in extracellular AK activity) [2, 6]: 1.4
AK-based Prestwick Library Screening Results: P. aeruginosa (increase in extracellular AK activity) (P. aeruginosa; [7]): 1.1
AK-based Prestwick Library Screening Results: E. coli (increase in extracellular AK activity) (E. coli; [8]): 1.3
AK-based Prestwick Library Screening Results: K. pneumoniae (increase in extracellular AK activity) (K. pneumoniae; [9]): 1.0
AK-based Prestwick Library Screening Results: E. faecium (increase in extracellular AK activity) (E. faecium; [10]): 1.1
AK-based Prestwick Library Screening Results: E. cloacae (increase in extracellular AK activity) (E. cloacae; [11]): 1.3

Avermectin B1
AK-based Prestwick Library Screening Results, S. aureus (fold increase in extracellular AK activity) [1, 12]: 1.7
AK-based Prestwick Library Screening Results, A. baumannii (fold increase in extracellular AK activity) [2, 12]: 0.8
AK-based Prestwick Library Screening Results, P. aeruginosa (fold increase in extracellular AK activity) (P. aeruginosa; [12]): 0.6
AK-based Prestwick Library Screening Results, E. coli (fold increase in extracellular AK activity) (E. coli; [12]): 0.8
AK-based Prestwick Library Screening Results, K. pneumoniae (fold increase in extracellular AK activity) (K. pneumoniae; [12]): 0.6
AK-based Prestwick Library Screening Results, E. faecium (fold increase in extracellular AK activity) (E. faecium; [12]): 1.2
AK-based Prestwick Library Screening Results, E. cloacae (fold increase in extracellular AK activity) (E. cloacae; [12]): 0.9

Beta-Escin
AK-based Prestwick Library Screening Results, S. aureus (fold increase in extracellular AK activity) [1, 12]: 0.8
AK-based Prestwick Library Screening Results, A. baumannii (fold increase in extracellular AK activity) [2, 12]: 0.8
AK-based Prestwick Library Screening Results, P. aeruginosa (fold increase in extracellular AK activity) (P. aeruginosa; [12]): 0.7
AK-based Prestwick Library Screening Results, E. coli (fold increase in extracellular AK activity) (E. coli; [12]): 0.9
AK-based Prestwick Library Screening Results, K. pneumoniae (fold increase in extracellular AK activity) (K. pneumoniae; [12]): 0.7
AK-based Prestwick Library Screening Results, E. faecium (fold increase in extracellular AK activity) (E. faecium; [12]): 0.9
AK-based Prestwick Library Screening Results, E. cloacae (fold increase in extracellular AK activity) (E. cloacae; [12]): 1.4

Bromocryptine mesylate
AK-based Prestwick Library Screening Results, S. aureus (increase in extracellular AK activity) [1, 13]: 0.6
AK-based Prestwick Library Screening Results, A. baumannii (increase in extracellular AK activity) [2, 13]: 1.4
AK-based Prestwick Library Screening Results, P. aeruginosa (increase in extracellular AK activity) (P. aeruginosa; [13]): 1.1
AK-based Prestwick Library Screening Results, E. coli (increase in extracellular AK activity) (E. coli; [13]): 1.3
AK-based Prestwick Library Screening Results, K. pneumoniae (increase in extracellular AK activity) (K. pneumoniae; [13]): 1.1
AK-based Prestwick Library Screening Results, E. faecium (increase in extracellular AK activity) (E. faecium; [13]): 0.9
AK-based Prestwick Library Screening Results, E. cloacae (increase in extracellular AK activity) (E. cloacae; [13]): 1.4

Butirosin disulfate salt
AK-based Prestwick Library Screening Results, S. aureus (fold increase in extracellular AK activity) [1, 12]: 0.5
AK-based Prestwick Library Screening Results, A. baumannii (fold increase in extracellular AK activity) [2, 12]: 0.5
AK-based Prestwick Library Screening Results, P. aeruginosa (fold increase in extracellular AK activity) (P. aeruginosa; [12]): 0.5
AK-based Prestwick Library Screening Results, E. coli (fold increase in extracellular AK activity) (E. coli; 50 μM final drug concentration, planktonic, […]): 0.5
AK-based Prestwick Library Screening Results, K. pneumoniae (fold increase in extracellular AK activity) (K. pneumoniae; [12]): 0.5
AK-based Prestwick Library Screening Results, E. faecium (fold increase in extracellular AK activity) (E. faecium; [12]): 0.8
AK-based Prestwick Library Screening Results, E. cloacae (fold increase in extracellular AK activity) (E. cloacae; [12]): 0.4

Carbinoxamine maleate salt
AK-based Prestwick Library Screening Results, S. aureus (fold increase in extracellular AK activity) [1, 12]: 0.6
AK-based Prestwick Library Screening Results, A. baumannii (fold increase in extracellular AK activity) [2, 12]: 0.7
AK-based Prestwick Library Screening Results, P. aeruginosa (fold increase in extracellular AK activity) (P. aeruginosa; [12]): 0.6
AK-based Prestwick Library Screening Results, E. coli (fold increase in extracellular AK activity) (E. coli; [12]): 0.7
AK-based Prestwick Library Screening Results, K. pneumoniae (fold increase in extracellular AK activity) (K. pneumoniae; [12]): 0.6
AK-based Prestwick Library Screening Results, E. faecium (fold increase in extracellular AK activity) (E. faecium; [12]): 0.8
AK-based Prestwick Library Screening Results, E. cloacae (fold increase in extracellular AK activity) (E. cloacae; [12]): 0.7

Clofilium tosylate
AK-based Prestwick Library Screening Results: S. aureus (increase in extracellular AK activity) [1, 14]: 1.2
AK-based Prestwick Library Screening Results: A. baumannii (increase in extracellular AK activity) [2, 15]: 1.6
AK-based Prestwick Library Screening Results: P. aeruginosa (increase in extracellular AK activity) (P. aeruginosa; [16]): 1.3
AK-based Prestwick Library Screening Results: E. coli (increase in extracellular AK activity) (E. coli; planktonic E. coli, 50 μM final drug concentration, cutoff for positive-scoring molecules 3-fold increase): 1.5
AK-based Prestwick Library Screening Results: K. pneumoniae (increase in extracellular AK activity) (K. pneumoniae; [17]): 1.5
AK-based Prestwick Library Screening Results: E. faecium (increase in extracellular AK activity) (E. faecium; [18]): 1.4
AK-based Prestwick Library Screening Results: E. cloacae (increase in extracellular AK activity) (E. cloacae; [19]): 1.2

Colistin sulfate
AK-based Prestwick Library Screening Results, S. aureus (increase in extracellular AK activity) [1, 5]: 0.6
AK-based Prestwick Library Screening Results, A. baumannii (increase in extracellular AK activity) [2, 6]: 10.0
AK-based Prestwick Library Screening Results, P. aeruginosa (increase in extracellular AK activity) (P. aeruginosa; [7]): 23.6
AK-based Prestwick Library Screening Results, E. coli (increase in extracellular AK activity) (E. coli; [8]): 42.2
AK-based Prestwick Library Screening Results, K. pneumoniae (increase in extracellular AK activity) (K. pneumoniae; [9]): 24.1
AK-based Prestwick Library Screening Results, E. faecium (increase in extracellular AK activity) (E. faecium; [10]): 1.0
AK-based Prestwick Library Screening Results, E. cloacae (increase in extracellular AK activity) (E. cloacae; [11]): 0.7

Cotinine (−)
AK-based Prestwick Library Screening Results, S. aureus (increase in extracellular AK activity) [1, 4]: 0.4
AK-based Prestwick Library Screening Results, A. baumannii (increase in extracellular AK activity) [2, 4]: 0.3
AK-based Prestwick Library Screening Results, P. aeruginosa (increase in extracellular AK activity) (P. aeruginosa; [4]): 0.3
AK-based Prestwick Library Screening Results, E. coli (increase in extracellular AK activity) (E. coli; [13]): 0.5
AK-based Prestwick Library Screening Results, K. pneumoniae (increase in extracellular AK activity) (K. pneumoniae; [4]): 0.4
AK-based Prestwick Library Screening Results, E. faecium (increase in extracellular AK activity) (E. faecium; [4]): 0.8
AK-based Prestwick Library Screening Results, E. cloacae (increase in extracellular AK activity) (E. cloacae; [4]): 0.3

Cyanocobalamin
AK-based Prestwick Library Screening Results, S. aureus (increase in extracellular AK activity) [1, 14]: 0.5
AK-based Prestwick Library Screening Results, A. baumannii (increase in extracellular AK activity) [2, 15]: 0.8
AK-based Prestwick Library Screening Results, P. aeruginosa (increase in extracellular AK activity) (P. aeruginosa; [16]): 0.7
AK-based Prestwick Library Screening Results, E. coli (increase in extracellular AK activity) (E. coli; [8]): 0.8
AK-based Prestwick Library Screening Results, K. pneumoniae (increase in extracellular AK activity) (K. pneumoniae; [17]): 0.6
AK-based Prestwick Library Screening Results, E. faecium (increase in extracellular AK activity) (E. faecium; [18]): 0.8
AK-based Prestwick Library Screening Results, E. cloacae (increase in extracellular AK activity) (E. cloacae; [19]): 1.2

Cytisine (−)
AK-based Prestwick Library Screening Results, S. aureus (fold increase in extracellular AK activity) [1]: 1.0
AK-based Prestwick Library Screening Results, A. baumannii (fold increase in extracellular AK activity) [2]: 1.4
AK-based Prestwick Library Screening Results, P. aeruginosa (fold increase in extracellular AK activity) (P. aeruginosa): 1.2
AK-based Prestwick Library Screening Results, E. coli (fold increase in extracellular AK activity) (E. coli): 1.3
AK-based Prestwick Library Screening Results, K. pneumoniae (fold increase in extracellular AK activity) (K. pneumoniae): 1.2
AK-based Prestwick Library Screening Results, E. faecium (fold increase in extracellular AK activity) (E. faecium): 1.0
AK-based Prestwick Library Screening Results, E. cloacae (fold increase in extracellular AK activity) (E. cloacae): 1.5

Deptropine citrate
AK-based Prestwick library screening result, S. aureus (fold increase in extracellular AK activity) [1, 5]: 1.1
AK-based Prestwick library screening result, A. baumannii (fold increase in extracellular AK activity) [2, 6]: 1.3
AK-based Prestwick library screening result, P. aeruginosa (fold increase in extracellular AK activity) (P. aeruginosa; [7]): 1.0
AK-based Prestwick library screening result, E. coli (fold increase in extracellular AK activity) (E. coli; [8]): 1.5
AK-based Prestwick library screening result, K. pneumoniae (fold increase in extracellular AK activity) (K. pneumoniae; [9]): 0.9
AK-based Prestwick library screening result, E. faecium (fold increase in extracellular AK activity) (E. faecium; [10]): 1.1
AK-based Prestwick library screening result, E. cloacae (fold increase in extracellular AK activity) (E. cloacae; [11]): 1.6

Dihydroergotamine tartrate
AK-based Prestwick Library Screening Results: S. aureus (increase in extracellular AK activity) [1, 14]: 1.0
AK-based Prestwick Library Screening Results: A. baumannii (increase in extracellular AK activity) [2, 15]: 1.5
AK-based Prestwick Library Screening Results: P. aeruginosa (increase in extracellular AK activity) (P. aeruginosa; [16]): 1.2
AK-based Prestwick Library Screening Results: E. coli (increase in extracellular AK activity) (E. coli; [8]): 1.3
AK-based Prestwick Library Screening Results: K. pneumoniae (increase in extracellular AK activity) (K. pneumoniae; [17]): 0.9
AK-based Prestwick Library Screening Results: E. faecium (increase in extracellular AK activity) (E. faecium; [18]): 1.0
AK-based Prestwick Library Screening Results: E. cloacae (increase in extracellular AK activity) (E. cloacae; [19]): 1.3

Reference: patent US10004701B2, “Methods and compositions for treating infection” (UNIVERSITY OF ROCHESTER, priority 2012, dated 2018)
